The target in the assay is T1, COX-1 (Homo sapiens, UniProt P23219).
T1 construct: gene PTGS1; pure human recombinant enzyme (h-COX-1)
Kind of assay: colorimetric TMPD oxidation assay with purified human COX-1, arachidonic acid substrate. Format: biochemical.

The structures appear in SMILES notation.

T1 sequence (P23219 24-599): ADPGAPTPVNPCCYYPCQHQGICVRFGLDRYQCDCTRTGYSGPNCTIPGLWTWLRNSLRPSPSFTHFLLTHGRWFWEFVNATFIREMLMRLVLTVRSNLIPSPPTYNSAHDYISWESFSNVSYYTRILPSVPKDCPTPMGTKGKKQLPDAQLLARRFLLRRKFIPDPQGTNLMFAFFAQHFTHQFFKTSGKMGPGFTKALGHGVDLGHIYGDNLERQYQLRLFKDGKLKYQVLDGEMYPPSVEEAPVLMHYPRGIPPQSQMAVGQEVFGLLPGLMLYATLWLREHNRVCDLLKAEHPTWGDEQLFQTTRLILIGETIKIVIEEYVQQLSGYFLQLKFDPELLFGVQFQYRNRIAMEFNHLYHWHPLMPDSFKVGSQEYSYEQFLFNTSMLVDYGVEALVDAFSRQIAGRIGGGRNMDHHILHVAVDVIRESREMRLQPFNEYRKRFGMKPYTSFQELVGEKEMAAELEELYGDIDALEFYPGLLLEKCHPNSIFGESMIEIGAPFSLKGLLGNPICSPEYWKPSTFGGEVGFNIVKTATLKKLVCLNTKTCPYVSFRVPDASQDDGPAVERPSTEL

The term IC50 denotes the midpoint of a concentration-inhibition curve. The low end stands for higher potency, the high end for lower potency. In turn, `O=c1ccc2cc(O[C@@H]3O[C@H](CO)[C@@H](O)[C@H](O)[C@H]3O)c(O)cc2o1` [a, 7-hydroxy-6-[(2 S, 3 R, 4 S, 5 S, 6 R)-3,4,5-trihydroxy-6-(hydroxymethyl)oxane-2-yl] oxychromen-2-one] yielded a 50% inhibitory concentration (IC50) of 4.49 mM.

The record behind these values is article PMC8161015, “Antiplatelet Activity of Coumarins: In Vitro Assays on COX-1” (Molecules, 2021).
